Patent US11793885B2, “Substituted benzo[5,6][1,4]diazepino[1,2-a]indoles for the treatment of proliferative disorders” (priority 2017, dated 2023)
pIC50: −log10 of the molar value. Read-outs that look alike come from different tables or passages of the source.

Key:
KB (cervical carcinoma) = assay: in vitro cytotoxicity assay, KB cells; assay type: cell-based, human; settings: free cytotoxic compound, 5 days
Text: (§1) Following cell lines were used for the study: KB (cervical carcinoma, ATCC), NCI-H2110 (Non Small Cell Lung Carcinoma, ATCC), Namalwa (Burkitt's lymphoma, ATCC), Ishikawa (endometrial adenocarcinoma, ECACC), EOL-1 (Acute Myeloid Leukemia, ECACC), JEG-3 (choriocarcinoma, ATCC), JHOS-4 (ovarian adenocarcinoma, Riken Bioresource Center), OV-90 (ovarian adenocarcinoma, ATCC), SKOV-6 (ovarian adenocarcinoma, Memorial Sloan Kettering Cancer Center), Igrov-1 (ovarian adenocarcinoma, National Cancer Institute), KB-GRC1-MDR (cervical carcinoma/Pgp positive, gift from Dr. Roninson at the Ordway Research Institute) and T47D (breast epithelial cancer, ATCC). The cells were maintained and plated for the cytotox experiments in media recommended by the manufacturers. Cells were plated in the 96-well flat bottom plates at a seeding density of 800 cells per well (Ishikawa, JEG-3 or SK-OV-6), 1,000 cells per well (KB, Namalwa, EOL-1, OV-90 and Igrov-1) or 2,000 cell per well (NCI H2110, JHOS-4 and T47D). Conjugates or free drug compounds were diluted in RPMI-1640 (Life Technologies) supplemented with heat-inactivated 100 FBS (Life Technologies) and 0.1 mg/ml gentamycin (Life Technologies), and added to the plated cells. To determine specificity of cytotoxic activity of the conjugates an excess of unconjugated antibody was added to a separate set of diluted conjugates (+block samples, IC50 table). The plates were incubated at 37° C., 500 CO2 for either 4 days (JHOS-4 and T47D cells) or 5 days (KB, NCI H2110, Ishikawa, EOL-1, JEG-3, OV-90, SK-OV-6, NC-H441 and Igrov-1 cells). Alamar blue assay (Invitrogen) was used to determine viability of JHOS-4 and T47D cells, and WST-8 assay (Donjindo Molecular Technologies, Inc.) was applied for viability of KB, NCI H2110, Namalwa, Ishikawa, EOL-1, JEG-4, OV-90, SK-OV-6, NCI-H4441 and Igrov-1 cells. The assays were performed in accordance with the manufacturer's protocols. Killing curves and IC50 were generated using a sigmoidal dose-response nonlinear regression curve fit (GraphPad Software Inc.).

[1] = tested on: NCI-H2110 (Non Small Cell Lung Carcinoma); assay: in vitro cytotoxicity assay, NCI-H2110 cells; assay type: cell-based; settings: free cytotoxic compound, 5 days
Text: as §1

[2] = tested on: Namalwa (Burkitt's lymphoma); assay: in vitro cytotoxicity assay, Namalwa cells; assay type: cell-based, human; settings: free cytotoxic compound
Text: as §1

[3] = tested on: EOL-1 (Acute Myeloid Leukemia); assay: in vitro cytotoxicity assay, EOL-1 cells; assay type: cell-based; settings: Homo sapiens, EOL1, 120 h; free cytotoxic compound; 5 days
Text: as §1

[4] = tested on: Ishikawa (endometrial adenocarcinoma); assay: in vitro cytotoxicity assay, Ishikawa cells; assay type: cell-based; settings: free cytotoxic compound, 5 days
Text: as §1

[5] = tested on: KB-GRC1-MDR (cervical carcinoma/Pgp positive); assay: cells; settings: read-out: IC50 KB-MDR
Text: Following cell lines were used for the study: KB (cervical carcinoma, ATCC), NCI-H2110 (Non Small Cell Lung Carcinoma, ATCC), Namalwa (Burkitt's lymphoma, ATCC), Ishikawa (endometrial adenocarcinoma, ECACC), EOL-1 (Acute Myeloid Leukemia, ECACC), JEG-3 (choriocarcinoma, ATCC), JHOS-4 (ovarian adenocarcinoma, Riken Bioresource Center), OV-90 (ovarian adenocarcinoma, ATCC), SKOV-6 (ovarian adenocarcinoma, Memorial Sloan Kettering Cancer Center), Igrov-1 (ovarian adenocarcinoma, National Cancer Institute), KB-GRC1-MDR (cervical carcinoma/Pgp positive, gift from Dr. Roninson at the Ordway Research Institute) and T47D (breast epithelial cancer, ATCC). The cells were maintained and plated for the cytotox experiments in media recommended by the manufacturers. Cells were plated in the 96-well flat bottom plates at a seeding density of 800 cells per well (Ishikawa, JEG-3 or SK-OV-6), 1,000 cells per well (KB, Namalwa, EOL-1, OV-90 and Igrov-1) or 2,000 cell per well (NCI H2110, JHOS-4 and T47D). […] To determine specificity of cytotoxic activity of the conjugates an excess of unconjugated antibody was added to a separate set of diluted conjugates (+block samples, IC50 table). The plates were incubated at 37° C., […] for either 4 days (JHOS-4 and T47D cells) or 5 days (KB, NCI H2110, Ishikawa, EOL-1, JEG-3, OV-90, SK-OV-6, NC-H441 and Igrov-1 cells). Alamar blue assay (Invitrogen) was used to determine viability of JHOS-4 and T47D cells, and WST-8 assay (Donjindo Molecular Technologies, Inc.) was applied for viability of KB, NCI H2110, Namalwa, Ishikawa, EOL-1, […], OV-90, SK-OV-6, […] and Igrov-1 cells. The assays were performed in accordance with the manufacturer's protocols. Killing curves and IC50 were generated using a sigmoidal dose-response nonlinear regression curve fit (GraphPad Software Inc.).

[6] = tested on: T47D (breast epithelial cancer); assay: in vitro cytotoxicity assay, T47D cells; assay type: cell-based; settings: Homo sapiens, 96 h, read-out: IC50 T47D
Protocol: The cells were maintained and plated for the cytotox experiments in media recommended by the manufacturers. Cells were plated in the 96-well flat bottom plates at a seeding density of 800 cells per well (Ishikawa, JEG-3 or SK-OV-6), 1,000 cells per well (KB, Namalwa, EOL-1, OV-90 and Igrov-1) or 2,000 cell per well (NCI H2110, JHOS-4 and T47D). Conjugates or free drug compounds were diluted in RPMI-1640 (Life Technologies) supplemented with heat-inactivated 100 FBS (Life Technologies) and 0.1 mg/ml gentamycin (Life Technologies), and added to the plated cells. To determine specificity of cytotoxic activity of the conjugates an excess of unconjugated antibody was added to a separate set of diluted conjugates (+block samples, IC50 table). The plates were incubated at 37° C., 500 CO2 for either 4 days (JHOS-4 and T47D cells) or 5 days (KB, NCI H2110, Ishikawa, EOL-1, JEG-3, OV-90, SK-OV-6, NC-H441 and Igrov-1 cells). Alamar blue assay (Invitrogen) was used to determine viability of JHOS-4 and T47D cells, and WST-8 assay (Donjindo Molecular Technologies, Inc.) was applied for viability of KB, NCI H2110, Namalwa, Ishikawa, EOL-1, JEG-4, OV-90, SK-OV-6, NCI-H4441 and Igrov-1 cells. The assays were performed in accordance with the manufacturer's protocols. Killing curves and IC50 were generated using a sigmoidal dose-response nonlinear regression curve fit (GraphPad Software Inc.).

[7] = Phase I clinical evaluation; cited from earlier work

| Structure (SMILES) | pIC50 (KB (cervical carcinoma); Homo sapiens, KB, 120 h) | pIC50 ([1]; NCI-H2110, 120 h) | pIC50 ([2]; Homo sapiens) | pIC50 [3] | pIC50 ([4]; Homo sapiens, Ishikawa, 120 h) | further results |
| --- | --- | --- | --- | --- | --- | --- |
| COc1cc2c(cc1OCCCCNC(=O)c1cc(NC(=O)c3cc(NC(=O)CCC(C)(C)SSC)cn3C)cn1C)N=C[C@@H]1Cc3ccccc3N1C2=O [Compound 192] | 9.05 | 8.70 | 9.40 | – | – | – |
| COc1cc2c(cc1OCCCC(=O)Nc1cc(C(=O)Nc3cc(C(=O)NCC(C)(C)SSC)n(C)c3)n(C)c1)N=C[C@@H]1Cc3ccccc3N1C2=O [Compound 132] | 9.40 | 8.70 | 10.05 | 10.40 | – | – |
| COc1cc2c(cc1OCCCC(=O)Nc1cn(C)c(C(=O)Nc3ccc4sccc4c3)n1)N=C[C@@H]1Cc3ccccc3N1C2=O [Compound 137] | 10.30 | 10.00 | 10.70 | 11.00 | – | – |
| COC(=O)CCNC(=O)c1cc2cc(NC(=O)c3nc(NC(=O)CCCOc4cc5c(cc4OC)C(=O)N4c6ccccc6C[C@H]4C=N5)cn3C)ccc2s1 [Compound 142] | – | – | 11.00 | 11.22 | – | – |
| COc1cc2c(cc1OCCCC(=O)Nc1cn(C)c(C(=O)Nc3ccc(N)cc3)n1)N=C[C@@H]1Cc3ccccc3N1C2=O [Compound 149] | 9.70 | 9.40 | 10.22 | – | 10.00 | – |
| COc1cc2c(cc1OCCCC(=O)Nc1cn(C)c(C(=O)Nc3ccc(-c4cc(C(=O)NCC(C)(C)SSC)n(C)c4)cc3)n1)N=C[C@@H]1Cc3ccccc3N1C2=O [Compound 125] | 10.40 | 10.22 | 11.00 | 11.40 | 10.30 | pIC50 [5]: 9.05 |
| COc1cc2c(cc1OCCCC(=O)Nc1cn(C)c(C(=O)Nc3ccc(-c4cc(C(=O)NCC(C)(C)SSC)n(C)c4)cn3)n1)N=C[C@@H]1Cc3ccccc3N1C2=O [Compound 103] | 10.15 | 9.70 | 10.70 | – | 10.30 | pIC50 [5]: 9.40 |
| COC(=O)c1cc2cc(NC(=O)c3cc(NCCCCOc4cc5c(cc4OC)C(=O)N4c6ccccc6C[C@H]4C=N5)cn3C)ccc2s1 [Compound 216] | 9.30 | 8.05 | – | – | – | pIC50 [6]: 8.70 |
| COC(=O)CCNC(=O)c1cc2cc(NC(=O)c3cc(NC(=O)CCCOc4cc5c(cc4OC)C(=O)N4c6ccccc6C[C@H]4C=N5)cn3CCCNC(=O)OC(C)(C)C)ccc2o1 [Compound 199] | 9.00 | 8.30 | < 9.30 | – | – | pIC50 [1]: 8.52 |
| COc1cc2c(cc1OCCCC(=O)Nc1cn(C)c(C(=O)Nc3ccc(-c4cc(C(=O)NCC(C)(C)SSC)n(C)c4)cc3)n1)N=C[C@@H]1Cc3ccccc3CN1C2=O [Compound 206] | 11.22 | 11.00 | 12.00 | – | 11.40 | pIC50 [5]: 10.00 |
| COc1cc2c(cc1OCCCC(=O)Nc1nc(C)c(C(=O)Nc3ccc4sc(C(=O)NCC(C)(C)S(C)=S)cc4c3)s1)N=C[C@@H]1Cc3ccccc3N1C2=O (stereo partly shown) [Compound 81] | – | – | – | – | – | pIC50 (KB (cervical carcinoma)): < 8.30; pIC50 [1]: < 8.30; pIC50 [2]: 8.52; pIC50 [4]: < 8.30; pIC50 ([5]; free cytotoxic compound): < 8.30 |
| COc1cc2c(cc1OCCCC(=O)Nc1cn(C)c(C(=O)NCc3cccc(C(=O)NCC(C)(C)S(C)=S)c3)n1)N=C[C@@H]1Cc3ccccc3N1C2=O (stereo partly shown) [Compound 121] | – | – | – | – | – | pIC50 (KB (cervical carcinoma)): 8.70; pIC50 [1]: 8.70; pIC50 [2]: 9.22; pIC50 [4]: 8.70; pIC50 ([5]; free cytotoxic compound): < 8.30 |
| COc1cc2c(cc1OCCCC(=O)Nc1cn(C)c(C(=O)Nc3ccc(-c4csc(C(=O)NCC(C)(C)SSC)n4)cc3)n1)N=C[C@@H]1Cc3ccccc3N1C2=O [Compound 113] | 9.70 | 9.40 | 10.15 | – | 9.70 | pIC50 [5]: 8.52 |
| COc1cc2c(cc1OCCCC(=O)Nc1ccc(-c3cc(C(=O)NCC(C)(C)S)n(C)c3)cc1)NC(S(=O)(=O)O)[C@@H]1Cc3ccccc3N1C2=O (stereo partly shown) [Compound 30] | – | – | 9.15 | 10.00 | – | – |
| COC(=O)c1cc2cc(NC(=O)c3cc(Nc4cccc(COc5cc6c(cc5OC)C(=O)N5c7ccccc7C[C@H]5C=N6)c4)cn3C)ccc2s1 [Compound 63] | 9.00 | 8.52 | 9.52 | – | 9.22 | pIC50 [5]: < 8.30 |
| COC(=O)CCNC(=O)c1cc2cc(NC(=O)c3cc(NC(=O)CCCOc4cc5c(cc4OC)C(=O)N4c6ccccc6C[C@H]4C=N5)cn3C)ccc2o1 [Compound 185] | 9.70 | 9.30 | 9.70 | – | – | – |
| C=C1C[C@H]2C=Nc3cc(OCCCOc4cc5c(cc4OC)C(=O)N4CC(=C)C[C@H]4C=N5)c(OC)cc3C(=O)N2C1 [SJG-136] | – | – | – | – | – | maximum tolerated dose [7]: 45 μg/m^2 |
| COC(=O)CCNC(=O)c1nc(NC(=O)c2cc3cc(NC(=O)CCCOc4cc5c(cc4OC)C(=O)N4c6ccccc6C[C@H]4C=N5)ccc3o2)cn1C [Compound 180] | 9.00 | 8.70 | 9.52 | – | – | – |
| COc1cc2c(cc1OCCCC(=O)Nc1cn(C)c(C(=O)Nc3ccc4nc(C(=O)NCC(C)(C)S(C)=S)n(C)c4c3)n1)N=C[C@@H]1Cc3ccccc3N1C2=O (stereo partly shown) [Compound 99] | – | – | – | – | – | pIC50 (KB (cervical carcinoma)): 9.30; pIC50 [1]: 9.00; pIC50 [2]: 10.00; pIC50 [4]: 9.15 |
| COc1cc2c(cc1OCCCC(=O)Nc1cc(C(=O)Nc3ccc(-c4cc(C(=O)NCC(C)(C)SSC)n(C)c4)cc3)n(C)c1)N=C[C@@H]1Cc3ccccc3N1C2=O [Compound 85] | 11.00 | 10.00 | 10.52 | 11.10 | 10.00 | pIC50 [5]: < 8.30 |
| COc1cc2c(cc1OCc1cccc(CC(=O)Nc3cc(C(=O)Nc4ccc(-c5cc(C(=O)NCC(C)(C)S(C)=S)n(C)c5)cc4)n(C)c3)c1)N=C[C@@H]1Cc3ccccc3N1C2=O (stereo partly shown) [Compound 55] | – | – | – | – | – | pIC50 (KB (cervical carcinoma)): 8.05; pIC50 [1]: 8.70; pIC50 [2]: 8.40 |
| COC(=O)CCNC(=O)c1cc2cc(NC(=O)c3cc(NC(=O)CCCOc4cc5c(cc4OC)C(=O)N4c6ccccc6C[C@H]4C=N5)cn3C)ccc2s1 [Compound 9] | 10.40 | 9.70 | 10.52 | 11.00 | 10.15 | – |
| COC(=O)c1cc2cc(NC(=O)c3cc(NC(=O)CCCOc4cc5c(cc4OC)C(=O)N4c6ccccc6C[C@H]4C=N5)cn3C)ccc2s1 [Compound 7] | – | – | 10.70 | – | – | – |
| COC(=O)CCNC(=O)c1cc2cc(NC(=O)c3nc(NC(=O)CCCOc4cc5c(cc4OC)C(=O)N4c6ccccc6C[C@H]4C=N5)cn3C)ccc2o1 [Compound 188] | 10.10 | 9.30 | 10.22 | 10.70 | – | – |
| COC(=O)c1cc2cc(NC(=O)c3cc(NC(=O)NCCOc4cc5c(cc4OC)C(=O)N4c6ccccc6C[C@H]4C=N5)cn3C)ccc2s1 [Compound 214] | < 8.30 | < 8.30 | – | – | – | – |
| COc1cc2c(cc1OCCCC(=O)Nc1ccc(C(=O)Nc3cc(C(=O)NCC(C)(C)S(C)=S)n(C)c3)nc1)N=C[C@@H]1Cc3ccccc3N1C2=O (stereo partly shown) [Compound 117] | – | – | – | – | – | pIC50 (KB (cervical carcinoma)): 9.22; pIC50 [1]: 8.70; pIC50 [2]: 9.52; pIC50 [4]: 9.00; pIC50 ([5]; free cytotoxic compound): < 8.30 |
| COc1cc2c(cc1OCCCC(=O)Nc1cn(C)c(C(=O)Nc3ccc4sc(C(=O)NCC(C)(C)SSC)cc4c3)n1)N=C[C@@H]1Cc3ccccc3N1C2=O [Compound 155] | – | – | 10.52 | 11.05 | – | – |
| COc1cc2c(cc1OCCCC(=O)Nc1cccc(C(=O)Nc3cc(C(=O)NCC(C)(C)SSC)n(C)c3)n1)N=C[C@@H]1Cc3ccccc3CN1C2=O [Compound 205] | 9.40 | 9.10 | 10.00 | – | 9.52 | pIC50 [5]: 8.40 |
